Data reported in patent publication US20160038526A1, “TREATMENT OF PROSTATE CANCER” (THOMAS JEFFERSON UNIVERSITY, priority 2012, published 2016).

Key:
cyclin D1 = test: Expression of Stat5 target gene cyclin D1 in CWR22Rv1 and LNCaP cells (immunoblot); type: cell-based, human; conditions: 48 h or 25 μM over time
Method: Exponentially growing CWR22Rv1 and LNCaP cells were treated with N6BAP or the control compound C5 (Ctrl) for 48 h at concentrations indicated in FIG. 6 and whole cell lysates were immunoblotted with anti-cyclinD1 mAb. Exponentially growing CWR22Rv1 and LNCaP cells were treated with N6BAP or control compound C5 (Ctrl) at 25 μM for the periods of time indicated in FIG. 6, and whole cell lysates were immunoblotted with anti-cyclinD1 mAb or anti-Bcl-X1 pAb. Cell pellets were solubilized in lysis buffer [10 mM Tris-HCl (pH 7.6), 5 mM EDTA, 50 mM sodium chloride, 30 mM sodium pyrophosphate, 50 mM sodium fluoride, 1 mM sodium orthovanadate, 1% Triton X-100, 1 mM phenylmethylsulfonyl fluoride, 5 μg/ml aprotinin, 1 μg/ml pepstatin A, and […]], rotated end-over-end at 4° C. for 60 min, and insoluble material was pelleted at 12,000×g for 30 min at 4° C. The protein concentrations of clarified cell lysates were determined by simplified Bradford method (Bio-Rad Laboratories, Hercules, Calif.). The following primary antibodies were used for Western blotting, at the following concentrations: anti-β-actin pAb (1:4,000; Sigma), anti-cyclin D1 mAb (1:1000, BD Biosciences) and Bcl-xL pAb (1:1000, Cell Signaling, Danvers, Mass.).

Stat3 [1] = target: Stat3 (Homo sapiens, UniProt P40763); test: IL-6-induced Stat3 transcriptional activity, luciferase reporter in LNCaP cells; type: cell-based; conditions: 6.0 μM for 2 h, 50 ng/ml IL-6 for 16 h
Method: LNCaP prostate cancer cells were transiently co-transfected with pStat3, pIL-6-receptor (pIL-6R), pStat3-Luc and pRL-TK (Renilla luciferase). The cells were serum-starved for 20 h, pre-treated with N6BAP or the control compound C5 (Ctrl) at 6.0 μM for 2 h followed by stimulation with 50 ng/ml of IL-6 for 16 h. The relative luciferase activities were determined. S.E. values are indicated by bars.

CWR22Rv1 cells = test: Nucleosomal DNA fragmentation (nucleosomal ELISA) in CWR22Rv1 cells; type: cell-based, human; conditions: 24 μM N6BAP
prostate cancer cells = test: Induction of apoptotic death of prostate cancer cells (summary of FIGS. 9A-9E); type: cell-based, human
Method: (§1) CWR22Rv1 prostate cancer cells were treated with N6BAP or the control compound C5 (Ctrl) at 25 μM concentration or vehicle for 24 h. Following trypan blue exclusion, the attached viable vs. de-attached dead cells were counted. […] The bars indicate mean±SD of triplicate wells. In another assay, CWR22Rv1, LNCaP and DU145 cells were treated with N6BAP, the control compound C5 (Ctrl) or vehicle at indicated concentrations. The fraction of alive cells was determined by MTS ([…]) metabolic activity assay (CellTiter 96® AQueous Assay kit). The results are shown in FIGS. 9C, 9D and 9E, respectively.

[2] = system: HCT116 human liver cancer cells; test: Cell viability assay, HCT116; type: cell-based
Method: as §1
The procedure of Example 9 was followed, substituting cells of the following solid tumor cell lines for the cells treated in Example 9: A549 human lung cancer cells, CAPAN human pancreatic cancer cells, T47D human breast cancer cells, […], A2058 human melanoma and COS-7 monkey fibroblast cell lines.

Stat3 [3] = test: Nuclear Stat3 immunostaining in CWR22Rv1 xenograft tumors; type: in vivo, nude mice; conditions: CWR22Rv1 xenograft tumors of Example 10
Method: Nuclear active Stat5a/b or nuclear active Stat3 were analyzed by immunostaining with an anti-Stat5a/b or anti-Stat3 antibody, respectively, and biotin-streptavidin amplified peroxidase antiperoxidase immunodetection of paraffin-embedded sections of the prostate xenograft tumors of Example 10. Anti-Stat5a/b (mAb) (55 ng/ml) (Santa Cruz Biotechnology) was used as the primary antibody and antigen-antibody complexes were detected by appropriate biotinylated goat secondary antibodies (Biogenex Laboratories) followed by streptavidin-horseradish-peroxidase complex, and 3,3′-diaminobenzidine as chromogen and Mayer hematoxylin as counterstain. Three microscopic views of each tumor (ten tumors per each treatment group) were photographed at 20× magnification. Nuclear Stat5 and Stat3 indexes were determined by counting epithelial cells with nuclear Stat5a/b immunostaining-positive cells per total number of epithelial cells per view. The counts were averaged within the tumors in a given treatment group.

Stat5a/b = test: Clinical prostate cancers ex vivo in explant organ cultures: nuclear Stat5a/b immunohistochemistry; type: cell-based, human; conditions: 7 days, N6BAP 5, 10, 25, 50 and 100 μM; C5 100 m
Method: The specimens comprised de-identified excess tissue obtained after the completion of pathology diagnosis. A zero-sample prior to organ culture was formalin-fixed for each individual prostate cancer for the analysis of the nuclear Stat5a/b status. The prostate organ cultures were performed as described earlier (Ahonen et al., Endocrinology (2002), 143:228-238). Briefly, prostate cancer tissue was cut into approximately 1 mm^3 pieces in a plain culture medium and transferred onto lens papers lying on stainless steel grids in petri dishes. The medium was phenol-free medium 199 with Earle's salts (Sigma) containing dialyzed 5% fetal calf serum, G-penicillin (100 IU/ml), streptomycin sulfate ([…]), and glutamine (100 μg/ml). […] Tissue explants were cultured in a medium containing the N6BAP or control compound C5 at indicated concentrations (C5: […]; N6BAP: 5, 10, 25, 50 and 100 μM) 7 days, after which the explants were fixed in formalin and analyzed for Stat5a/b activation and viability of prostate cancer epithelial compartment. Viability of the epithelial cells in the prostate cancer explants at the end of the cultures were scored by counting the viable epithelial cells per explant.
Nuclear Stat5a/b indexes were determined by counting the Stat5-positive cells per 500 epithelial cells in the cultured explants in each treatment group.

Sequence of Stat3 (Homo sapiens, UniProt P40763) (P40763 whole entry, species assumed): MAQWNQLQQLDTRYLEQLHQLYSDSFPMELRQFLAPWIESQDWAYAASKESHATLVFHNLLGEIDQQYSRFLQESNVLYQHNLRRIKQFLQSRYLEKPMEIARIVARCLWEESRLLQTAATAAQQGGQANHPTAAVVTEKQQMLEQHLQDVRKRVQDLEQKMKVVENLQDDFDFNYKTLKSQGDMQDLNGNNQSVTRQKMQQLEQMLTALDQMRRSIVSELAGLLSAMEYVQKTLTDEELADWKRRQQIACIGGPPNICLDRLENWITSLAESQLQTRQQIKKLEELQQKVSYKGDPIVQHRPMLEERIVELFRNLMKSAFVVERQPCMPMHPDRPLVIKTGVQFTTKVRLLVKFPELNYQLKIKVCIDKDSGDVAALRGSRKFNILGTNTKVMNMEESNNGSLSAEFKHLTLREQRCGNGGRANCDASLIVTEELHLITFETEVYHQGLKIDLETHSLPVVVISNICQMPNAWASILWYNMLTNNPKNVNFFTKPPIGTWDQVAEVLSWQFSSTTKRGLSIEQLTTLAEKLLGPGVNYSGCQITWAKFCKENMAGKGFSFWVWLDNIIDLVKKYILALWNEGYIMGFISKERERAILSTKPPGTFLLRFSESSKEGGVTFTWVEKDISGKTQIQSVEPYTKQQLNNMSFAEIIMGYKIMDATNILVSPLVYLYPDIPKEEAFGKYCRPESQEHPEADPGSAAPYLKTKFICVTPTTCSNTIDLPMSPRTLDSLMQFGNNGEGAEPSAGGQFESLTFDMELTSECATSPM

O=P(O)(O)OC[C@H]1O[C@@H](n2cnc3c(NCc4ccccc4)ncnc32)[C@H](O)[C@@H]1O [N6BAP, N^6-benzyladenosine-5′-monophosphate]
expression of cyclin D1 (cyclin D1): down-regulates expression
transcriptional activity of Stat3 (Stat3 [1]): does not inhibit the transcriptional activity of Stat3
DNA fragmentation (apoptosis) (CWR22Rv1 cells): N6BAP-induced DNA fragmentation
treatment time required to induce prostate cancer cell apoptosis (prostate cancer cells): at least 48 hours
apoptotic death of prostate cancer cells (prostate cancer cells; CWR22Rv1, LNCaP, DU145): induces apoptotic death of prostate cancer cells
cell viability [2]: did not affect the viability
nuclear Stat3 in xenograft tumors (Stat3 [3]): without affecting nuclear Stat3
nuclear Stat5 expression in explant organ cultures (Stat5a/b): reduced the levels of nuclear Stat5 expression
